According to the supplement of paper PMC10307832:

Key:
Experiment in all cases: relative viability (nuclei count vs DMSO), 5 days (fraction); higher = more cells survive
[1] = compound: Cc1nc(NC(=O)N2CCC[C@H]2C(N)=O)sc1-c1ccnc(C(C)(C)C(F)(F)F)c1 [Alpelisib] + O=C(c1cc(Cc2n[nH]c(=O)c3ccccc23)ccc1F)N1CCN(C(=O)C2CC2)CC1 [Olaparib] (partner 8 µM)
Summary of the method: (§1)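 The day after seeding in 1536-well plates, lung cancer cell lines were treated by pin tool with a single drug, or with a fixed anchor-drug dose together with five library-drug doses (not always all listed) in √10 steps. After 5 days, a combined fix-and-stain solution (final 0.05% Triton X-100, 1% formaldehyde, 1 ug/ml Hoechst) was added. Nuclei counted on 4× images gave relative viability as treated counts over vehicle counts, reported as the median of duplicate plates.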

[2] = compound: COc1cccc2cc(-c3nc([C@H]4CC[C@H](C(=O)O)CC4)n4ncnc(N)c34)[nH]c12 [OSI-027] + CC(C)C[C@H](NC(=O)[C@H](Cc1ccccc1)NC(=O)c1cnccn1)B(O)O [Bortezomib] (partner 0.002 µM)
Summary of the method: as §1

[3] = compound: CCCS(=O)(=O)Nc1ccc(F)c(C(=O)c2c[nH]c3ncc(-c4ccc(Cl)cc4)cc23)c1F [Vemurafenib] + CC(C)C[C@H](NC(=O)[C@H](Cc1ccccc1)NC(=O)c1cnccn1)B(O)O [Bortezomib] (partner 0.002 µM)
Summary of the method: as §1

[4] = compound: CCCS(=O)(=O)Nc1ccc(F)c(C(=O)c2c[nH]c3ncc(-c4ccc(Cl)cc4)cc23)c1F [Vemurafenib] + NC(=O)Nc1cc(-c2cccc(F)c2)sc1C(=O)N[C@H]1CCCNC1 [AZD7762] (partner 0.2 µM)
Summary of the method: as §1

Row | Cell Line | relative viability ([1]; first compound 0.04 µM) | relative viability ([1]; first compound 0.1265 µM) | relative viability ([1]; first compound 0.4 µM) | relative viability ([1]; first compound 1.265 µM) | relative viability ([1]; first compound 4 µM) | relative viability ([2]; first compound 0.01 µM) | relative viability ([2]; first compound 0.03162 µM) | relative viability ([2]; first compound 0.1 µM) | relative viability ([2]; first compound 0.3162 µM) | relative viability ([2]; first compound 1 µM) | relative viability ([3]; first compound 0.03162 µM) | relative viability ([3]; first compound 0.1 µM) | relative viability ([3]; first compound 1 µM) | relative viability ([4]; first compound 0.3162 µM) | relative viability ([4]; first compound 1 µM) | relative viability ([3]; first compound 0.3162 µM) | relative viability ([4]; first compound 0.03162 µM) | relative viability ([4]; first compound 0.1 µM)
1 | SK-LU-1 | 0.491 | 0.472 | 0.532 | 0.378 | 0.41 | 1.01 | 1.26 | 0.75 | 0.655 | 0.404 | 0.86 | 1.05 | 1.14 |  |  |  |  | 
2 | PC-3 [JPC-3] | 1.23 | 1.1 | 1.24 | 0.967 | 1.02 | 0.816 | 0.731 | 0.807 | 0.877 | 0.815 | 0.81 |  | 0.887 | 0.785 | 0.94 | 0.804 |  | 
3 | ChaGo-K-1 | 0.435 | 0.42 | 0.426 | 0.417 | 0.342 | 0.987 | 1.17 | 0.554 | 0.838 | 0.762 | 0.934 | 0.725 | 1.08 | 0.738 | 0.882 |  | 0.818 | 0.853
4 | NCI-H2023 | 0.436 | 0.432 | 0.479 | 0.383 | 0.263 | 0.944 | 0.926 | 0.898 | 0.687 | 0.358 | 0.869 | 0.948 | 0.943 |  |  | 0.859 |  | 
5 | LXF-289 | 1.04 | 1.04 | 1.12 | 0.997 | 0.942 | 1.03 | 1.05 | 1.05 | 0.984 | 0.837 | 1.01 | 0.953 | 1.1 | 1.04 | 1.25 | 0.966 | 1.04 | 1.12
6 | EBC-1 | 0.682 | 0.74 | 0.655 | 0.636 | 0.587 | 0.497 | 0.557 | 0.515 | 0.53 | 0.375 | 0.453 | 0.553 | 0.741 |  |  | 0.622 |  | 
7 | LOU-NH91 | 0.915 | 0.87 | 0.844 | 0.65 | 0.777 | 0.452 | 0.486 | 0.473 | 0.546 | 0.455 | 0.478 | 0.467 | 0.534 | 0.594 | 0.816 |  | 0.735 | 0.682
8 | PC-14 | 0.263 | 0.348 | 0.512 | 0.276 | 0.295 | 1.03 | 0.93 | 0.955 | 0.989 | 0.652 | 0.728 |  | 0.777 |  | 0.356 | 0.88 | 0.272 | 
9 | Calu-6 | 0.602 | 0.529 | 0.646 | 0.615 | 0.577 | 1.34 | 0.956 | 1 | 0.906 | 0.896 | 0.897 | 0.939 | 0.832 |  |  | 0.96 |  | 
10 | H3255 | 0.571 | 0.59 | 0.651 | 0.538 | 0.474 | 0.825 | 0.761 | 0.619 | 0.545 | 0.534 | 0.802 |  | 0.681 | 0.723 | 0.949 | 0.612 | 0.843 | 
11 | SW 900 | 0.878 |  | 0.974 | 0.914 | 0.795 |  |  |  |  |  |  |  |  | 0.618 | 0.563 |  | 0.575 | 0.469
12 | NCI-H1563 |  |  |  |  |  | 0.822 | 0.872 | 0.781 | 0.741 | 0.722 | 0.855 | 0.658 | 0.846 |  |  | 0.762 |  | 
13 | NCI-H2170 | 0.519 | 0.586 | 0.596 | 0.481 | 0.466 |  |  |  |  |  |  |  |  | 0.685 | 0.766 |  | 0.774 | 
14 | NCI-H522 | 0.795 | 0.693 | 0.529 | 0.661 | 0.491 |  |  |  |  |  |  |  |  | 0.755 | 0.869 |  | 0.797 | 0.855
15 | SK-MES-1 | 0.616 | 0.556 | 0.786 | 0.622 | 0.544 |  |  |  |  |  |  |  |  |  |  |  |  | 
16 | NCI-H2228 | 0.889 | 0.587 | 0.621 | 0.341 | 0.326 | 0.977 | 1.01 | 0.999 |  | 0.65 | 1.03 | 1 | 1.15 |  |  | 1.24 |  | 
17 | NCI-H358 | 0.665 | 0.578 | 0.544 | 0.403 | 0.332 |  |  |  |  |  |  |  |  | 0.621 | 0.632 |  | 0.551 | 
18 | NCI-H1648 | 0.887 | 0.758 | 1.13 | 0.4 | 0.331 |  |  |  |  |  |  |  |  | 1.23 | 0.779 |  |  | 0.571
19 | NCI-H1299 | 1 | 0.96 | 1.01 | 0.896 | 0.966 | 1.09 | 1.03 | 1.06 | 1.08 | 1.1 | 0.998 | 0.976 | 1 |  |  | 0.918 |  | 
20 | COR-L23 | 0.327 | 0.338 | 0.573 | 0.294 | 0.253 | 1.16 | 0.923 | 1.07 | 1.13 | 0.298 | 0.925 | 0.941 | 0.912 |  |  | 0.832 |  | 
21 | NCI-H2009 | 0.756 | 0.659 | 0.674 | 0.647 | 0.599 | 1.07 | 1.09 | 0.933 | 0.929 | 0.592 | 0.944 | 0.922 | 0.778 |  |  | 0.583 |  | 
22 | NCI-H1944 | 0.41 | 0.431 | 0.427 | 0.341 | 0.337 |  |  |  |  |  |  |  |  | 0.426 | 0.57 |  | 0.515 | 
23 | NCI-H1395 | 0.45 | 0.511 | 0.472 | 0.408 | 0.451 |  |  |  |  |  |  |  |  | 0.381 | 0.373 |  | 0.397 | 0.411
24 | A549 | 0.301 |  | 0.434 | 0.3 | 0.23 |  |  |  |  |  |  |  |  |  |  |  |  | 
25 | NCI-H520 | 0.285 | 0.298 | 0.331 | 0.231 | 0.272 | 0.62 | 0.394 | 0.459 | 0.179 | 0.225 | 0.46 | 0.487 | 0.454 |  |  | 0.722 |  | 
26 | COR-L 105 | 0.706 | 0.646 | 0.755 | 0.686 | 0.642 | 0.682 | 0.716 | 0.779 | 0.572 | 0.428 | 0.772 |  | 0.759 |  |  | 0.485 |  | 
